In patent US20260294871A1, “PHARMACEUTICAL COMBINATIONS AND COMPOSITIONS THEREOF COMPRISING ANTIBACTERIAL AGENTS” (priority 2023, published 2026):
Like-named read-outs stand apart in the source and are kept apart here.

What was measured:
[1] = tested on: all grouped isolates from India; assay: MIC by broth microdilution against all grouped isolates from India; format: cell-based, resistant bacterial strains
Procedure: (§1) In a typical study MIC tests were performed by broth microdilution in line with CLSI susceptibility testing standards. Bacterial inocula were prepared at ca. 1×10^6 CFU/mL by diluting 100-fold a 0.5 McFarland suspension in CA-MHB with TES. Microtiter plate wells containing 50 μL of antibacterial solutions at 2×the final concentrations were diluted 2-fold with 50 μL of inoculum to give a final inoculum of ca. 5×10^5 CFU/mL and desired test concentrations of antibacterial agents. Test microtiter plates were incubated according to CLSI guidelines and read visually. MIC values corresponded to the first well with no visible growth.
There was a marked improvement in antibacterial activity, compared to MEM alone, observed for the triple combinations, for MEM/AVI [4 mg/L]/EDTA [10 mM] and MEM/AVI [4 mg/L]/EDTA [20 mM], the reduction in MIC90 was 0.06 μg/mL and ≤0.002 μg/mL, respectively.

[2] = tested on: Enterobacterales isolates from India; assay: MIC by broth microdilution against Enterobacterales; format: cell-based, Enterobacteriaceae
Procedure: as §1
The results of antibacterial activity of amikacin, Ceftazidime-avibactam, Ceftriaxone with sulbactam and EDTA, Meropenem and Meropenem with avibactam and EDTA against highly resistant strains of Enterobacteriaceae are given in Table 2.

[3] = tested on: Non-Enterobacteriaceae (non-fermenter isolates); assay: MIC by broth microdilution against Non-Enterobacteriaceae; format: cell-based
Procedure: as §1

[4] = tested on: P. aeruginosa; assay: MIC by broth microdilution against P. aeruginosa; format: cell-based, Pseudomonas aeruginosa
Procedure: as §1
The results of antibacterial activity of amikacin, Ceftazidime-avibactam, Ceftriaxone with sulbactam and EDTA, Meropenem and Meropenem with avibactum and EDTA against highly resistant strains of P. aeruginosa are given in Table 5. As may be seen, the activity of the comparators was much lower although CRO/S4/E10 maximum MIC90 were much lower at ≤0.03 μg/mL.

[5] = tested on: Acinetobacter baumannii; assay: MIC by broth microdilution against Acinetobacter baumannii; format: cell-based
Procedure: as §1
The results of antibacterial activity of amikacin, Ceftazidime-avibactam, Ceftriaxone with sulbactam and EDTA, Meropenem and Meropenem with avibactum and EDTA against highly resistant strains of Acinetobacter baumannii are given in Table 7.

[6] = tested on: Stenotrophomonas maltophilia; assay: MIC by broth microdilution against Stenotrophomonas maltophilia; format: cell-based; settings: highly resistant strains
Procedure: as §1
The results of antibacterial activity of amikacin, Ceftazidime-avibactam, Ceftriaxone with sulbactam and EDTA, Meropenem and Meropenem with avibactum and EDTA against highly resistant strains of Stenotrophomonas maltophilia are given in Table 8.

[7] = tested on: K. pneumoniae; assay: Frequency of Resistance (FOR) Study, K. pneumoniae; format: cell-based
Procedure: Objective: The in-vitro study was conducted to determine the frequency of resistance in 8 characterized isolates.
• Isolates: 8 isolates-E. coli (3), K. pneumoniae (2), A. baumannii (1) and P. aeruginosa (2) • Compound tested: Meropenem; Meropenem Avibactam (4); Meropenem EDTA (10 mM); Meropenem Avibactam (4) EDTA (10 mM) • Antibiotic Concentration used: […]

[8] = tested on: K. pneumoniae; assay: MIC of Time Kill Assay isolates, K. pneumoniae; format: cell-based; settings: Klebsiella pneumoniae; TKA isolates
Procedure: Objective: The in-vitro Time Kill Assay study was conducted to determine the log reduction in 5 characterised MDR isolates.
• Isolates: 5 isolates-E. coli (3), K. pneumoniae (2) • Compound tested: Meropenem; Meropenem Avibactam (4); Meropenem EDTA (10 mM); Meropenem Avibactam (4) EDTA (10 mM) • 1 log—90% killing, 2 log 99% killing and 3 log 99.9% killing. Bactericidal: 3 log reduction (99.9% killing) • MIC: […]

[9] = tested on: E. coli, K. pneumoniae, P. aeruginosa A. baumannii and E. cloacae; assay: Effects of body fluids on MIC, all tested isolates; format: cell-based, Gram-negatives clinical isolates
Procedure: Objective: The combinations of meropenem (MEM) in the presence of different concentrations of avibactam (AVI) and EDTA were tested. The triple combination test compounds were investigated for in-vitro activity in presence cation-adjusted Mueller Hinton broth (CA-MHB) and CA-MHB supplemented with different body fluids i.e. human serum (25% and 50%), pooled urine (25% and 50%), bovine Surfactant (1 and 5%) and human peritoneal fluid (25 and 50%) against the a set of Gram-negatives clinical isolates from India.
Method: The tolerance screening was performed on a total of 60 isolates to ascertain tolerance to body fluids and total 19 isolates including ATCC strains and non-duplicate clinically relevant Escherichia coli (n=6), Klebsiella pneumoniae (n=3), Pseudomonas aeruginosa (n=6) Acinetobacter baumannii (n=3) and Enterobacter cloacae (n=1) were selected prior to susceptibility testing. Tested compounds included Meropenem with AVI at 4 and EDTA at 10 mM (MEM/A4/E10), Meropenem with AVI at 4 and EDTA at 20 mM (MEM/A4/E20), Meropenem with AVI at 8 and EDTA at 10 mM (MEM/A8/E10), Meropenem with AVI at 8 and EDTA at 20 mM (MEM/A8/E20), Meropenem (MEM), Ceftriaxone with sulbactam at […] and EDTA at 10 mM (CRO/S10/E10), Ceftazidime-avibactam (CZA), Amikacin (AMK), Tigecycline and Minocycline. […]

C[C@@H](O)[C@H]1C(=O)N2C(C(=O)O)=C(S[C@@H]3CN[C@H](C(=O)N(C)C)C3)[C@H](C)[C@H]12 [Meropenem, (4R,5S,6S)-3-(((3S,5S)-5-(dimethylcarbamoyl)pyrrolidin-3-yl)thio)-6-((R)-1-hydroxyethyl)-4-methyl-7-oxo-1-azabicyclo[3.2.0]hept-2-ene-2-carboxylic acid]
>32 µg/mL: MIC50 ([1]; all grouped isolates (606)) | MIC50 ([2]; n=301) | MIC90 ([2]; n=301) | MIC50 ([3]; highly resistant strains) | MIC90 ([3]; highly resistant strains) | MIC90 ([4]; highly resistant strains) | MIC90 ([5]; highly resistant strains) | MIC50 [6] | MIC90 [6]
98.2%: MEM-NS isolates ([5]; n=163)
> 32 µg/mL: MIC50 [1] | MIC90 [1] | MIC90 ([1]; MEM-NS isolates (n=534)) | MIC90 ([1]; all grouped isolates (606)) | MIC50 [2] | MIC90 [2] | MIC50 ([2]; MEM-NS isolates (n=250)) | MIC90 ([2]; MEM-NS isolates (n=250)) | MIC50 [3] | MIC90 [3] | MIC90 ([3]; highly resistant strains, listed as MEM) | MIC90 ([4]; MEM-NS isolates (n=120)) | MIC50 ([4]; Pseudomonas aeruginosa, highly resistant strains) | MIC90 ([4]; Pseudomonas aeruginosa, highly resistant strains, read-out: MIC90) | MIC90 ([5]; Acinetobacter baumannii) | MIC50 ([5]; Acinetobacter baumannii, highly resistant strains) | MIC90 ([5]; MEM-NS isolates (n=163)) | MIC50 ([6]; Stenotrophomonas maltophilia, read-out: MIC50) | MIC90 ([6]; Stenotrophomonas maltophilia, read-out: MIC90) | MIC [8] | MIC [9]
82.7%: isolates resistant to meropenem (MEM NS) ([2]; 250 out of 301)
0: count, 24 H of Incubation ([7]; strain 6 - K. pneumoniae, ATB concentration 16x)
88.9%: MEM-NS isolates ([3]; n=284)
TMTC: count, 24 H of Incubation ([7]; strain 6 - K. pneumoniae, ATB concentration 4x) | count, 24 H of Incubation ([7]; strain 7 - K. pneumoniae, ATB concentration 4x) | count, 24 H of Incubation ([7]; strain 7 - K. pneumoniae, ATB concentration 8x) | count, 24 H of Incubation ([7]; strain 7 - K. pneumoniae, ATB concentration 16x)
92.7%: MEM-NS isolates ([4]; n=120)
303: count, 24 H of Incubation ([7]; strain 6 - K. pneumoniae, ATB concentration 8x)
